According to US20050100617A1, “Method for improving age-related physiological deficits and increasing longevity” (priority 2001, published 2005):

System: skeletal muscle (gastrocnemius) gene expression
Assay: Gene expression profiling in skeletal muscle, short-term (3 months) dietary intervention in young mice
Assay type: in vivo
Conditions: 3 months treatment
Experimental: For each target gene, the fold change is calculated as follows: [Expression obtained with the experimental diet] divided by [Expression obtained with control diet]. Consequently, fold changes of all target genes are equal to 1 (one) for the control diet. Thus, fold changes refers to the modulation of expression of a given target gene in muscle tissue after 3 months feeding with an experimental diet, for example, diets B, C, D, or F, when compared to the expression of the same gene in muscle tissue of the control group (diet A).
Dietary intervention was of 3 months, all animal groups were fed Ad libitum except for the group of caloric restricted mice which as fed 67% of the daily food consumed by the control Ad libitum group. Animal weight was measured once a week.
The effect of short and long nutritional intervention was investigated. The short-term dietary interventions with diet A, B, C, D and F was initiated in young mice and lasted for three months. In a similar way, long-term interventions were initiated at three months of age for the following diets A and B and D and lasted twenty-one months.
Male mice C57/B16 were obtained from Iffa credo (France) at 9 weeks of age. Upon arrival mice were housed by groups of 6 animals. After 3 weeks adaptation, mice (12 weeks old) were randomized 6 groups (A to F) of 12 mice each and housed individually. Dietary intervention was of 3 months; mice had free access to water and were submitted to 12 hours light and dark cycles.
The control diet (diet A) composed of 18% proteins (soy and whey), 11% fat (soybean oil), 59% carbohydrates (starch+sucrose) and 10% cellulose was supplemented with either a cocktail of antioxidants comprising vitamin C, vitamin E, grape seed extract and cysteine (diet C) and/or L-camitine (diet D and F respectively). For caloric restriction (diet B) fat, starch and sucrose were reduced to provide 67% of the daily calorie consumption of the Ad-lib control group while providing 100% for proteins, minerals and vitamins. These diets are as follows: • Diet A—Control: 18% proteins (soy and whey), 11% fat, 59% carbohydrates, 5% cellulose. • Diet B—Caloric restriction: 18% proteins (soy and whey), 7.7% fat, 32.5% carbohydrates, 5% cellulose • Diet C—Cocktail of antioxidants : Diet A+0.19% vit C, 0.03% vit E, 0.075% grape seed extract, 0.4% cysteine. • Diet D: Carnitine and Antioxidants: Diet A+0.3% L- camitine+cocktail of antioxidants of diet C. • Diet F: Carnitine: Diet A+0.3% L- carnitine
Mice were decapitated and dissected rapidly. Skeletal muscles (gastrocnemius) were immersed in RNAlatter (Ambion) and frozen at −80° C. until use. For RNA extraction, muscles were homogenized with ceramic beads (FastPrep, Q-Biogene) and the RNA extracted with Totally RNA kit (Ambion). The quality of the RNA was checked by Agilent technology. RNA pools from four mice each were created and hybridized to Affymetrix Murine U74Av2 high-density oligonucleotide microarrays.
The Global Error Assessment (GEA) methodology was used to select differentially expressed genes in the present invention. See Bioinformatics, Vol. 20, No. 16 (Oxford University Press 2004) pp. 2726-2737, the content of which is hereby incorporated by reference thereto. The goal was to select genes with statistically significant differential expression between treatments and ages of the mice of the study.

C[N+](C)(C)C[C@H](O)CC(=O)[O-] [Carnitine, L-carnitine]
1.5 fold: Fold Changes G0s2 (G0/G1 switch gene 2) | Fold Changes Hist2h3c2 (histone 2, H3c2) | Fold Changes Snx2 (sorting nexin 2) | Fold Changes St13 (suppression of tumorigenicity 13)
0.8 fold: Fold Changes 2010012F05Rik (RIKEN cDNA 2010012F05 gene) | Fold Changes 2210419D22Rik (RIKEN cDNA 2210419D22 gene) | Fold Changes 5730454B08Rik (RIKEN cDNA 5730454B08 gene) | Fold Changes Cd164 (CD164 antigen) | Fold Changes Deb1 (differentially expressed in B16F10 1) | Fold Changes Hdac2 (histone deacetylase 2) | Fold Changes Sara2 (SAR1a gene homolog 2 (S. cerevisiae)) | Fold Changes Sgk (serum/glucocorticoid regulated kinase) | Fold Changes Slc38a2 (solute carrier family 38, member 2) | Fold Changes Sorbs1 (sorbin and SH3 domain containing 1) | Fold Changes Transcribed sequence with strong similarity to protein sp: P49840 (H. sapiens)
2.3 fold: Fold Changes Car4 (carbonic anhydrase 4) | Fold Changes Sri (sorcin)
1.7 fold: Fold Changes Aldh2 (aldehyde dehydrogenase 2, mitochondrial) | Fold Changes Nnt (nicotinamide nucleotide transhydrogenase) | Fold Changes Utrn (utrophin)
2.8 fold: Fold Changes Mapk9 (mitogen activated protein kinase 9)
0.6 fold: Fold Changes 0610013E23Rik (RIKEN cDNA 0610013E23 gene) | Fold Changes 6330407G11Rik (RIKEN cDNA 6330407G11 gene) | Fold Changes Anp32e (acidic (leucine-rich) nuclear phosphoprotein 32 family, member E) | Fold Changes Arid1a (AT rich interactive domain 1A (Swi1 like)) | Fold Changes Arpc2 (actin related protein 2/3 complex, subunit 2) | Fold Changes C4 (complement component 4 (within H-2S)) | Fold Changes Capzb (capping protein (actin filament) muscle Z-line, beta) | Fold Changes Eif4ebp1 (eukaryotic translation initiation factor 4E binding protein 1) | Fold Changes Eif4ebp2 (eukaryotic translation initiation factor 4E binding protein 2) | Fold Changes Enpep (glutamyl aminopeptidase) | Fold Changes Gas5 (growth arrest specific 5) | Fold Changes Gstm5 (glutathione S-transferase, mu 5) | Fold Changes Hoxd8 (homeo box D8) | Fold Changes Igfbp5 (insulin-like growth factor binding protein 5) | Fold Changes Lbp (lipopolysaccharide binding protein) | Fold Changes Matr3 (matrin 3) | Fold Changes Mnt (max binding protein) | Fold Changes Npc1 (Niemann Pick type C1) | Fold Changes Nras (neuroblastoma ras oncogene) | Fold Changes Orc4l (origin recognition complex, subunit 4-like (S. cerevisiae)) | Fold Changes Pdcd4 (programmed cell death 4) | Fold Changes Psmd11 (proteasome (prosome, macropain) 26S subunit, non-ATPase, 11) | Fold Changes Rwdd1 (RWD domain containing 1) | Fold Changes Strap (serine/threonine kinase receptor associated protein) | Fold Changes Zfp289 (zinc finger protein 289)
4.8 fold: Fold Changes Lypla1 (lysophospholipase 1)
0.9 fold: Fold Changes Pdk4 (pyruvate dehydrogenase kinase, isoenzyme 4) | Fold Changes Rab2 (RAB2, member RAS oncogene family) | Fold Changes Rtn4 (reticulon 4) | Fold Changes Tsta3 (tissue specific transplantation antigen P35B)
4.6 fold: Fold Changes Camk2a (calcium/calmodulin-dependent protein kinase II alpha) | Fold Changes Itgav (integrin alpha V) (Table 2 (up regulation))
1.8 fold: Fold Changes Dyrk1a (dual-specificity tyrosine-(Y)-phosphorylation regulated kinase 1a) | Fold Changes Ksr (kinase suppressor of ras)
1.9 fold: Fold Changes Cpd (carboxypeptidase D) | Fold Changes Retn (resistin) | Fold Changes Wars (tryptophanyl-tRNA synthetase)
17.3 fold: Fold Changes Psap (prosaposin)
0.2 fold: Fold Changes 5730497N03Rik (RIKEN cDNA 5730497N03 gene) | Fold Changes Klrb1c (killer cell lectin-like receptor subfamily B member 1C) | Fold Changes Slc2a5 (solute carrier family 2 (facilitated glucose transporter), member 5) | Fold Changes Zfp101 (zinc finger protein 101) | Fold Changes Itgav (integrin alpha V) (Table 1, first Itgav line)
2.5 fold: Fold Changes Tgm3 (transglutaminase 3, E polypeptide)
4.3 fold: Fold Changes Stam2 (signal transducing adaptor molecule (SH3 domain and ITAM motif) 2)
0.7 fold: Fold Changes 2310016A09Rik (RIKEN cDNA 2310016A09 gene) | Fold Changes Atp13a (ATPase type 13A) | Fold Changes Capza2 (capping protein (actin filament) muscle Z-line, alpha 2) | Fold Changes Cbfb (core binding factor beta) | Fold Changes Copb2 (coatomer protein complex, subunit beta 2 (beta prime)) | Fold Changes Ddb1 (damage specific DNA binding protein 1) | Fold Changes Eif2s3x (eukaryotic translation initiation factor 2, subunit 3, structural gene X-linked) | Fold Changes Eps15 (epidermal growth factor receptor pathway substrate 15) | Fold Changes Gpr12 (G-protein coupled receptor 12) | Fold Changes Itgb1 (integrin beta 1 (fibronectin receptor beta)) | Fold Changes Krtap3-1 (keratin associated protein 3-1) | Fold Changes Pigr (polymeric immunoglobulin receptor) | Fold Changes Psma3 (proteasome (prosome, macropain) subunit, alpha type 3) | Fold Changes Psmd8 (proteasome (prosome, macropain) 26S subunit, non-ATPase, 8) | Fold Changes Rbm17 (RNA binding motif protein 17) | Fold Changes Rpl30 (ribosomal protein L30) | Fold Changes Rpp14 (ribonuclease P 14 kDa subunit (human)) | Fold Changes Scamp2 (secretory carrier membrane protein 2) | Fold Changes Tcfl1 (transcription factor-like 1) | Fold Changes Transcribed sequences | Fold Changes Ubb (ubiquitin B) | Fold Changes Ube2e1 (ubiquitin-conjugating enzyme E2E 1, UBC4/5 homolog (yeast)) | Fold Changes Upf3b (UPF3 regulator of nonsense transcripts homolog B (yeast)) | Fold Changes Xpo7 (exportin 7) | Fold Changes Itgav (integrin alpha V) (Table 1, second Itgav line)
6.5 fold: Fold Changes Esr1 (estrogen receptor 1 (alpha))
0.5 fold: Fold Changes 2610034N03Rik (RIKEN cDNA 2610034N03 gene) | Fold Changes 2700059D21Rik (RIKEN cDNA 2700059D21 gene) | Fold Changes Apobec2 (apolipoprotein B editing complex 2) | Fold Changes Ccl9 (chemokine (C-C motif) ligand 9) | Fold Changes Cebpd (CCAAT/enhancer binding protein (C/EBP), delta) | Fold Changes Galnt1 (UDP-N-acetyl-alpha-D-galactosamine:polypeptide N-acetylgalactosaminyltra) | Fold Changes Hmgcl (3-hydroxy-3-methylglutaryl-Coenzyme A lyase) | Fold Changes Macf1 (microtubule-actin crosslinking factor 1) | Fold Changes Mapt (microtubule-associated protein tau) | Fold Changes Mt1 (metallothionein 1) | Fold Changes Muc1 (mucin 1, transmembrane) | Fold Changes Pkm2 (pyruvate kinase, muscle) | Fold Changes Prp19 (PRP19/PSO4 homolog (S. cerevisiae)) | Fold Changes Psmc1 (protease (prosome, macropain) 26S subunit, ATPase 1) | Fold Changes Rrad (Ras-related associated with diabetes) | Fold Changes Skp1a (S-phase kinase-associated protein 1A) | Fold Changes Tm4sf3 (transmembrane 4 superfamily member 3) | Fold Changes Top1 (topoisomerase (DNA) I)
0.4 fold: Fold Changes Cdh10 (cadherin 10) | Fold Changes Itpr1 (inositol 1,4,5-triphosphate receptor 1) | Fold Changes Junb (Jun-B oncogene) | Fold Changes Mapre3 (microtubule-associated protein, RP/EB family, member 3) | Fold Changes Pcdha12 (protocadherin alpha 12) | Fold Changes Tnpo1 (transportin 1) | Fold Changes Vps54 (vacuolar protein sorting 54 (yeast)) | Fold Changes Rpl10a (ribosomal protein L10A) (Table 1 (down regulation))
1.6 fold: Fold Changes Ldh2 (lactate dehydrogenase 2, B chain) | Fold Changes Pcnt2 (pericentrin 2) | Fold Changes Tubg2 (tubulin, gamma 2)
4.1 fold: Fold Changes Atp1b2 (ATPase, Na+/K+ transporting, beta 2 polypeptide)
1.3 fold: Fold Changes 6720463E02Rik (RIKEN cDNA 6720463E02 gene)
0.1 fold: Fold Changes Fcgr2b (Fc receptor, IgG, low affinity Ilb) | Fold Changes Myo5a (myosin Va) | Fold Changes Neurod6 (neurogenic differentiation 6)
2 fold: Fold Changes Siat6 (sialyltransferase 6 (N-acetyllacosaminide alpha 2,3-sialyltransferase))
1.2 fold: Fold Changes 2310073E15Rik (RIKEN cDNA 2310073E15 gene) | Fold Changes 4732477C12Rik (RIKEN cDNA 4732477C12 gene) | Fold Changes D8Ertd69e (DNA segment, Chr 8, ERATO Doi 69, expressed) | Fold Changes Hbb-b1 (hemoglobin, beta adult major chain) | Fold Changes Ndufb3 (NADH dehydrogenase (ubiquinone) 1 beta subcomplex 3) | Fold Changes Rpl10a (ribosomal protein L10A) (Table 2 (up regulation))
5.9 fold: Fold Changes Birc4 (baculoviral IAP repeat-containing 4) | Fold Changes Klf3 (Kruppel-like factor 3 (basic))
5.4 fold: Fold Changes Cd97 (CD97 antigen)
2.9 fold: Fold Changes E030006K04Rik (RIKEN cDNA E030006K04 gene)
1.1 fold: Fold Changes Slpi (secretory leukocyte protease inhibitor)
4.2 fold: Fold Changes Htr1a (5-hydroxytryptamine (serotonin) receptor 1A)
5.2 fold: Fold Changes D19Ertd678e (DNA segment, Chr 19, ERATO Doi 678, expressed) | Fold Changes Erv4 (endogenous retroviral sequence 4 (with leucine t-RNA primer))
0.3 fold: Fold Changes Gpx7 (glutathione peroxidase 7) | Fold Changes Mt2 (metallothionein 2) | Fold Changes Plk1 (polo-like kinase 1 (Drosophila))
1.4 fold: Fold Changes 3110038L01Rik (RIKEN cDNA 3110038L01 gene) | Fold Changes Actb (actin, beta, cytoplasmic) | Fold Changes Akt1s1 (AKT1 substrate 1 (proline-rich)) | Fold Changes Lpl (lipoprotein lipase) | Fold Changes Rhoa (ras homolog gene family, member A) | Fold Changes Spr (sepiapterin reductase) | Fold Changes Tnxb (tenascin XB)
4.7 fold: Fold Changes Xcl1 (chemokine (C motif) ligand 1)
